Columns and labels:
WI-38 cells [1] = assay: MTT assay, toxicity in non-cancerous lung fibroblast WI-38 cells; format: cell-based, human; conditions: Homo sapiens, WI-38, WI38 cells, 48 h post treatment, read-out: IC50 for inhibiting the cell proliferation
Description: Therefore, D-DSePA was compared with un-deuterated DSePA for its anticancer activity in A549, H1975 and H3122 cell lines which are representative of NSCLC. […] The plot of percent (%) cytotoxicity (100-% viability) versus the concentration of DSePA/D-DSePA was used to estimate the half maximum concentration (IC50) of above compounds to inhibit the proliferation of cells. […] Similarly, the toxicity of DSePA/D-DSePA was studied in non-cancerous lung fibroblast cells, WI-38 and WI-26 VA4 in the concentration range of 0.1 to 1000 μM at 48 h post treatment by MTT assay (FIG. 9D and 9E). […] Employing these values, the therapeutic index (IC50 in normal lung cell/IC50 in lung cancer cell) of DSePA and D-DSePA in different pairs of normal versus cancerous cells (viz., A549/WI-38, A549/WI-26 VA4, H1975/WI-38, H1975/WI-26 VA4, H3122/WI-38 and H3122/WI-26 VA4) was calculated (Table-3). […]
MTT Assay—To evaluate the anti-proliferative effect of D-DScPA and DScPA, Cells (˜5×10^3) suspended in 100 μl of complete culture medium were seeded in each well of 96 well plates. […] The percentage (%) cytotoxicity was calculated from the decrease in absorbance at 570 nm of treated groups as compared to that of control group. […] The therapeutic index was calculated by normalizing the IC50 concentration of D-DSePA/DSePA in non-cancerous cells to that in cancerous cells.

WI-38 cells [2] = assay: Clonogenic assay in WI-38 cells; format: cell-based, human; conditions: Homo sapiens, 168 h, seven days treatment, read-out: IC50 to inhibit growth (survival fraction)
Method: Further, clonogenic assay is considered as the gold standard method for evaluating the anticancer activity of any compound and is also a good indicator of the in vivo efficacy of any anticancer compound. Therefore, the therapeutic index of DSePA and D-DSePA in A549/WI-38 cells was also validated by employing the clonogenic assay. For this, A549/WI-38 cells were treated with the varying concentrations (0.1-2 μM)/(1-500 μM) of DSePA/D-DSePA for seven days and the survival fraction was calculated by counting the number of surviving clones (FIG. 11A). The plot of survival fraction verses the concentration of DScPA/D-DSCPA was used to estimate the IC50 of above compounds to inhibit the growth of A549/WI-38 cells. […] This clearly confirmed that deuteration of DScPA reduced its toxicity in normal cells without compromising its efficacy in cancer cells. […]
Clonogenic assay—Clonogenic assay was performed according to the method reported previously. […] After 7 days, colonies were fixed with absolute methanol for 5 min, stained with 0.5% crystal violet for 5 min, washed with distilled water to remove excess stain and counted manually under a stereo microscope. […] The plating efficiency and the survival fraction under irradiated and drug treated conditions were calculated using following formulae: […]
The plating efficiency of A549 and WI38 cells was calculated by seeding ˜300 and ˜500 cells respectively. […]

Structure (SMILES): O=C(O)CC[Se][Se]CCC(=O)O [DSePA, 3,3′-diselenodipropionic acid]
- IC50 (WI-38 cells [1]): 171 ± 2.2 µM
- IC50 (WI-38 cells [2]): 17.9 ± 0.01 µM

Source: US20240208901A1, “Deuterated 3,3'-Diselenodipropionic Acid (DSePA) and Its Use as an Anticancer or Radioprotective Agent” (Secretary, Department of Atomic Energy, priority 2022, published 2024)
